Earlier results in patent publication US20240342302A1, “DEGRADER-ANTIBODY CONJUGATES AND METHODS OF USING SAME” (Angiex, Inc., priority 2021, published 2024).

How the values were obtained:
[1] = patients treated with CA4P

| Compound | toxicity in the clinic | cardiovascular adverse events [1] |
| --- | --- | --- |
| CN(C)CC#Cc1ccc(OCCCc2sc(N3CCc4cccc(C(=O)Nc5nc6ccccc6s5)c4C3)nc2C(=O)O)c(F)c1 [A115463] | on-target and dose-limiting thrombocytopenia |  |
| COc1ccc(/C=C\c2cc(OC)c(OC)c(OC)c2)cc1OP(=O)(O)O [CA4P] |  | seven patients have experienced heart attacks |
| CC1(C)CCC(c2ccc(Cl)cc2)=C(CN2CCN(c3ccc(C(=O)NS(=O)(=O)c4ccc(N[C@H](CCN5CCOCC5)CSc5ccccc5)c(S(=O)(=O)C(F)(F)F)c4)cc3)CC2)C1 [ABT 263] | on-target and dose-limiting thrombocytopenia |  |
